Assay in all cases: relative viability (nuclei count vs DMSO), 5 days (fraction); higher = more cells survive
Compound in experiment [1]: C1CSC2=C(C(=O)N1)SC3=C2C=C(C=C3)O [kb NB 142-70] + C[C@@H](Oc1cc(-c2cnn(C3CCNCC3)c2)cnc1N)c1c(Cl)ccc(F)c1Cl [Crizotinib] (partner 1 µM)
A digest of the protocol:
(§1)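 Dosing by pin tool came one day after lung cancer cell lines were seeded in 1536-well plates, using either one drug or a fixed anchor-drug dose plus five library-drug doses (not always all listed) in √10 steps. After 5 days, nuclei were counted on 4× images. Relative viability is treated-well nuclei count divided by vehicle-well nuclei count, and values are medians of duplicate plates.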

Compound in the experiment “kb NB 142-70 + Dasatinib”: C1CSC2=C(C(=O)N1)SC3=C2C=C(C=C3)O [kb NB 142-70] + Cc1nc(Nc2ncc(C(=O)Nc3c(C)cccc3Cl)s2)cc(N2CCN(CCO)CC2)n1 [Dasatinib] (partner 0.075 µM)
A digest of the protocol:
as §1

Compound in experiment [2]: C1CSC2=C(C(=O)N1)SC3=C2C=C(C=C3)O [kb NB 142-70] + N=C(N)NC(=N)NCCc1ccccc1 [Phenformin] (partner 250 µM)
A digest of the protocol:
as §1

Compound in experiment [3]: C1CSC2=C(C(=O)N1)SC3=C2C=C(C=C3)O [kb NB 142-70] + CC(=O)c1c(C)c2cnc(Nc3ccc(N4CCNCC4)cn3)nc2n(C2CCCC2)c1=O [Palbociclib] (partner 0.5 µM)
A digest of the protocol:
as §1

Compound in the experiment “kb NB 142-70 + Alpelisib”: C1CSC2=C(C(=O)N1)SC3=C2C=C(C=C3)O [kb NB 142-70] + Cc1nc(NC(=O)N2CCC[C@H]2C(N)=O)sc1-c1ccnc(C(C)(C)C(F)(F)F)c1 [Alpelisib] (partner 2 µM)
A digest of the protocol:
as §1

Compound in experiment [4]: C1CSC2=C(C(=O)N1)SC3=C2C=C(C=C3)O [kb NB 142-70] + CCNC(=O)c1noc(-c2cc(C(C)C)c(O)cc2O)c1-c1ccc(CN2CCOCC2)cc1 [Luminespib] (partner 0.01 µM)
A digest of the protocol: as §1

For the cell line UMC-11, the relative viability in experiment [1] (first compound 0.1 µM) worked out at 0.698; in experiment [1] (first compound 1 µM), 0.601; in experiment [1] (first compound 3.162 µM), 0.277; with kb NB 142-70 + Dasatinib (first compound 0.1 µM) it was 0.438; with kb NB 142-70 + Dasatinib (first compound 1 µM) it was 0.464; in the experiment with kb NB 142-70 + Dasatinib (first compound 3.162 µM), 0.318. The relative viability amounted to 0.338 in experiment [2] (first compound 0.1 µM); 0.307 in experiment [2] (first compound 1 µM); 0.251 in experiment [2] (first compound 3.162 µM); 0.322 in experiment [3] (first compound 0.1 µM); 0.344 in experiment [3] (first compound 1 µM); 0.324 in experiment [3] (first compound 3.162 µM). Moreover, the relative viability amounted to 0.96 with kb NB 142-70 + Alpelisib (first compound 0.1 µM); 0.959 with kb NB 142-70 + Alpelisib (first compound 1 µM); 0.418 in the experiment with kb NB 142-70 + Alpelisib (first compound 3.162 µM); 1.02 in experiment [4] (first compound 0.1 µM); 0.908 in experiment [4] (first compound 1 µM); 0.494 in experiment [4] (first compound 3.162 µM).
